Test results as given in US9056111B1, “Selective efflux inhibitors and related pharmaceutical compositions and methods of treatment” (STC.UNM, priority 2011, dated 2015).

Tests used:
ABCB1 / ABCG2 = molecular target: T1, ABCB1 / ABCG2 (Homo sapiens, UniProt Q9UNQ0); assay: JC-1 efflux inhibition dose response, flow cytometry, Ig-MXP3 cells; settings: human, probe JC-1 (1 µM), ~Fold G2 Selective (B1/G2), quotient of average ABCB1 IC50 and average ABCG2 IC50, efflux assay
T1 sequence (Q9UNQ0 1-655): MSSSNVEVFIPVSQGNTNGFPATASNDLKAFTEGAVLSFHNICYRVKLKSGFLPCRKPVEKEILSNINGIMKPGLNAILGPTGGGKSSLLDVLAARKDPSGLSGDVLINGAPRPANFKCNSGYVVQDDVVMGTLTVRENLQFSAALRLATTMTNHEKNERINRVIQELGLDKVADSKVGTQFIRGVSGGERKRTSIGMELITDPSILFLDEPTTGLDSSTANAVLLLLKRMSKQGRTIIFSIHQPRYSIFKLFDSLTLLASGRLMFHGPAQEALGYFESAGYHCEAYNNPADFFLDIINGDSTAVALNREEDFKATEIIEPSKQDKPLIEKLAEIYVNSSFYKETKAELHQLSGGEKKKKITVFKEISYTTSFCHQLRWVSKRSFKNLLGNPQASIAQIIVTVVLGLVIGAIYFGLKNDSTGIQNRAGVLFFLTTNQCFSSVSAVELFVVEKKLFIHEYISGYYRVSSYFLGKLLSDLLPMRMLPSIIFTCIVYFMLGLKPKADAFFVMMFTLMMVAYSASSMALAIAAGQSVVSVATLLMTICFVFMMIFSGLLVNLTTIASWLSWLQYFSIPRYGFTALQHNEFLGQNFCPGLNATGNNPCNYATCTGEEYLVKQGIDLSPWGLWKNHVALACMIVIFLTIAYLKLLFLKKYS
Protocol: (§1) The HyperCyt® high throughput flow cytometry platform (IntelliCyt™, Albuquerque, N. Mex.) was used to sequentially sample cells from 384-well microplates (2 μL/sample) for flow cytometer presentation at a rate of 40 samples per minute.^62-63 Flow cytometric analysis was performed on a CyAn™ flow cytometer (Beckman-Coulter, Fullerton, Calif.). The resulting time-gated data files were analyzed with HyperView® software to determine compound activity in each well. Inhibition response curves were fitted by Prism® software (GraphPad Software, Inc., San Diego, Calif.) using nonlinear least-squares regression in a sigmoidal dose response model with variable slope, also known as the four-parameter logistic equation. This type of time-gated flow cytometric data analysis was described in detail for a previous ABC transporter screen from our group.^56
(§2) The assay provider's ABCB1 over-expressing Jurkat-DNR cell line is used for confirmatory follow up instead of the CCRF-Adr cells. Each cell line (Jurkat-DNR and Ig-MXP3) is run separately against all compounds (no differential cell staining) in dose response. The assay is conducted in 384-well format in a total volume of 15.1 μL. Cells and reagents are added sequentially as follows: 1) PBS buffer (5 μL/well); 2) test compound (100 nL/well); 3) drug-resistant cells (10 μL/well) pre-stained with the JC-1 substrate at 1 μM. […] Nicardipine (50 μM) is added to each plate as a pan-inhibition positive control.
(§3) Each cell line (Jurkat-DNR and Ig-MXP3) was run separately against all compounds (no differential cell staining) in dose-response. The protocol differed from the single point screen as describe here. Cells and reagents were added sequentially as follows: 1) PBS buffer (5 μL per well); 2) test compound (100 nL per well); 3) drug-resistant cells (10 μL, per well) pre-exposed to the JC-1 substrate at 1 μM just prior to the well addition.

ABCG2 = molecular target: T2, ABCG2 (Homo sapiens, UniProt Q9UNQ0); assay: as above
T2 sequence (Q9UNQ0 1-655): T1 sequence (Q9UNQ0 1-655)
Protocol: as §1, §2, §3

ABCB1 = ABCB1 (Homo sapiens, UniProt P08183); assay: JC-1 efflux inhibition dose response, flow cytometry, Jurkat-DNR cells; settings: IC50 ABCB1 (efflux inhibition of JC-1 substrate), Jurkat-DNR cells over-expressing ABCB1; averages of two to four replicates
ABCB1, sequence (P08183 whole entry): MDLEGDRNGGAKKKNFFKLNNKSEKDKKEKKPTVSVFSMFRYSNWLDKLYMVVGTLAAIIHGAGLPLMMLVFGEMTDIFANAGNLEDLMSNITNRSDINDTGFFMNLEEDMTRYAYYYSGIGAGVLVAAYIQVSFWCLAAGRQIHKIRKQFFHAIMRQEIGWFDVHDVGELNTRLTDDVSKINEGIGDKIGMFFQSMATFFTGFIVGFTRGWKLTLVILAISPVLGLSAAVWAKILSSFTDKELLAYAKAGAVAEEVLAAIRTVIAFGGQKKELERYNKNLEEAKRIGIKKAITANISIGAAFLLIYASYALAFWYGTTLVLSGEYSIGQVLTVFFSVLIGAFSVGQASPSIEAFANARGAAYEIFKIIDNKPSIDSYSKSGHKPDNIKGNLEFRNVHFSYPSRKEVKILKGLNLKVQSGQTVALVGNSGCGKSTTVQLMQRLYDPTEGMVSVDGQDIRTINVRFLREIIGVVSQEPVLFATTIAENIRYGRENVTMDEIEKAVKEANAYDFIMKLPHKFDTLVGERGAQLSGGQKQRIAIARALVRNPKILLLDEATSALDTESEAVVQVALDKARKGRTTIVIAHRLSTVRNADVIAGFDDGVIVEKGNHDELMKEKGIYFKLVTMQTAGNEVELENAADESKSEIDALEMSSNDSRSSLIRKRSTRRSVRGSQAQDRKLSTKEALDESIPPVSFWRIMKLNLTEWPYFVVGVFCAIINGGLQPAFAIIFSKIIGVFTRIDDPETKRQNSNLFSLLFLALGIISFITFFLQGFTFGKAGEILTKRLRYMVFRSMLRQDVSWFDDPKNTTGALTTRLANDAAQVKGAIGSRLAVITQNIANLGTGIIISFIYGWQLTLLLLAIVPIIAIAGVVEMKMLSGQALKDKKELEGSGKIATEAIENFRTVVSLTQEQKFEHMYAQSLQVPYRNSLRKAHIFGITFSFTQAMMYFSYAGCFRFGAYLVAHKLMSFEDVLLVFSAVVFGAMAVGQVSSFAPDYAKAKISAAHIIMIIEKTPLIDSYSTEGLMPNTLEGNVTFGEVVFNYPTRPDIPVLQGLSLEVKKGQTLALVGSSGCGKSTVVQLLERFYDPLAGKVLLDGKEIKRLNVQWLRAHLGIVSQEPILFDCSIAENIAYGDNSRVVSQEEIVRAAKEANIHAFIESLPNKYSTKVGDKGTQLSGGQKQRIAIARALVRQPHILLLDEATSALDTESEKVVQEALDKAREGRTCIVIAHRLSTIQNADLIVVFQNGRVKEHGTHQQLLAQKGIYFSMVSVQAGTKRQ
Protocol: as §1
The assay provider's ABCB1 over-expressing Jurkat-DNR cell line is used for confirmatory follow up instead of the CCRF-Adr cells. Each cell line (Jurkat-DNR and Ig-MXP3) is run separately against all compounds (no differential cell staining) in dose response. The assay is conducted in 384-well format in a total volume of 15.1 μL. Cells and reagents are added sequentially as follows: 1) PBS buffer (5 μL/well); 2) test compound (100 nL/well); 3) drug-resistant cells (10 μL/well) pre-stained with the JC-1 substrate at 1 μM. Final in-well concentrations of test compound range from 50 μM to 69 nM over an 18 point dose response and the cell concentration is 1×10^6 cells/mL. Nicardipine (50 μM) is added to each plate as a pan-inhibition positive control. The plate is rotated end-over-end at 4 RPM and 25° C. for 30 minutes and then cell samples are analyzed and flow cytometric data of light scatter and fluorescence emission at 530+/−20 nm (488 nm excitation, FL1) are collected.
as §3, with “addition. Final in-well concentrations of test compound ranged from 50 μM to 69 nM over an 18 point dose-response and the cell concentration was 1×10^6 cells mL^−1.” for “addition.”

SMILES | selectivity ratio at 30 min (ABCB1 / ABCG2) | IC50 (ABCG2) [nM] | IC50 (ABCB1) [nM]
O=C(c1ccoc1)N1CCCN(c2cc(-c3ccco3)nc3cc(-c4ccccc4)nn23)C1 [Compound 85] | 8.5 | 2250 ± 1900 | 19100 ± 9520
O=C(c1ccccc1Cl)N1CCN(c2cc(-c3ccccc3)nc3cc(-c4cccc(Cl)c4)nn23)CC1 [Compound 17] | 1.4 | 1310 ± 230 | 1850 ± 750
O=C(c1ccoc1)N1CCN(c2cc(-c3ccccc3)nc3cc(-c4ccc(Br)cc4)nn23)CC1 [Compound 33] | 1.7 | 760 ± 430 | 1310 ± 350
Cc1cccc(-c2cc3nc(-c4ccco4)cc(N4CCN(C(=O)c5ccoc5)CC4)n3n2)c1 [Compound 58] | 5.9 | 580 | 3450
Cc1nc2cc(-c3ccccc3)nn2c(N2CCN(C(=O)c3ccoc3)CC2)c1C [Compound 89] | 0.7 | 2180 ± 1930 | 1630 ± 590
CN(C)c1cc(-c2ccco2)nc2cc(-c3ccccc3)nn12 [Compound 82] | 3.6 | 7680 ± 1690 | 27700 ± 14500
CN(CCN(C)c1cc(-c2ccco2)nc2cc(-c3ccccc3)nn12)C(=O)c1ccoc1 [Compound 80] | 1.3 | 13000 ± 7880 | 17500 ± 5880
COc1ccccc1-c1cc2nc(-c3ccco3)cc(N3CCN(C(=O)c4ccoc4)CC3)n2n1 [Compound 55] | 2 | 2760 ± 2140 | 5570
COc1ccc(-c2cc(N3CCN(C(=O)c4ccoc4)CC3)n3nc(-c4ccccc4)cc3n2)cc1 [Compound 45] | 1.9 | 2370 ± 1800 | 4550
Cc1cc(N2CCN(C(=O)c3ccco3)CC2)n2nc(-c3cccc(Cl)c3)cc2n1 [Compound 10] | 2.1 | 2780 ± 820 | 5880 ± 1170
O=C(c1ccoc1)N1CCN(c2cc(-c3ccccc3)nc3cc(-c4ccccc4)nn23)CC1 [Compound 62] | 3 | 1580 ± 630 | 4790 ± 4230
C#Cc1cc(N2CCN(C(=O)c3ccoc3)CC2)n2nc(-c3cccc(Cl)c3)cc2n1 [Compound 32] | 4.3 | 2360 ± 530 | 10200 ± 3990
O=C(c1ccoc1)N1CCN(c2cc(-c3ccc(F)cc3)nc3cc(-c4ccccc4)nn23)CC1 [Compound 48] | 1.8 | 6450 | 11800
O=C(c1ccoc1)N1CCN(c2cc(-c3ccco3)nc3cc(-c4cccs4)nn23)CC1 [Compound 51] | 5.4 | 1560 ± 1300 | 8420
O=C(c1ccoc1)N1CCN(c2cc(-c3ccccc3F)nc3cc(-c4cccc(Cl)c4)nn23)CC1 [Compound 26] | 2.4 | 1930 ± 480 | 4690 ± 1500
O=C(c1ccoc1)N1CCN(c2cc(-c3ccccc3F)nc3cc(-c4ccccc4)nn23)CC1 [Compound 46] | 10 | 560 | 5610
O=C(c1ccoc1)N1CCN(c2cc(-c3ccc(F)cc3)nc3cc(-c4cccc(Cl)c4)nn23)CC1 [Compound 27] | 2.3 | 2410 ± 520 | 5650 ± 110
O=C(c1ccco1)N1CCN(c2cc(-c3ccco3)nc3cc(-c4ccccc4)nn23)CC1 [Compound 67] | 2.4 | 2770 ± 4010 | 6570 ± 2130
COc1cccc(-c2cc3nc(-c4ccccc4)cc(N4CCN(C(=O)c5ccoc5)CC4)n3n2)c1 [Compound 35] | 2 | 1140 ± 590 | 2260 ± 830
CC(C)(C)c1cc2nc(-c3ccco3)cc(N3CCN(C(=O)c4ccoc4)CC3)n2n1 [Compound 50] | 1.7 | 1970 | 3310
O=C(c1ccoc1)N1CCN(c2cc(-c3ccco3)nc3cc(-c4cccc(-c5ccco5)c4)nn23)CC1 [Compound 60] | 4.3 | 930 ± 270 | 3980 ± 1300
